# Measurements reported in patent US5202130A, “Suppression of eczematous dermatitis by calcium transport inhibition” (The Johns Hopkins University, priority 1989, dated 1993).
# Where a name gives a salt, the structure may show the parent alone. Read-outs that look alike come from different tables or passages of the source.
# Experiments:
# [1] = tested on: contact sensitization against DNCB; experiment: Inhibition of sensitization by diltiazem against DNCB (ear swelling); assay type: in vivo, BALB/c mice
# Experimental: Diltiazem HCl (1,5-Benzothiazepin-4(5H)one, 3-acetoy lox-5-(2-(dimethylamine)ethyl)-2, 3-dihydro-2(4-methoxyphenyl)-, monohydrochloride, (+)-cis) was injected intraperitoneally in a dose of 30 mg/kg (LD50 =60 mg per kg) two times a day for three days. Two hours after the first injection, mice were sensitized by applying DNCB to the shaved dorsal back skin. Contact sensitization against DNCB was determined five days later.
# [2] = stated with intraperitoneal administration in mice; no test described; cited from earlier work
# [3] = tested on: contact allergic dermatitis; experiment: Patch tests in seven patients with known contact allergic dermatitis, overall; assay type: in vivo, human (patients)
# Experimental: Seven patients with known contact allergic dermatitis were recruited. One had hypersensitivity to nickel, four of these individuals had allergies against formaldehyde, and two had known allergies against chromium sulfate. Three patch test were applied in each individual. Patient number 1 was exposed to nickel sulfate (5% weight per volume) in hydrophilic ointment base USP. "Results" refers to the amount of erythema in the patch test sites at 48 hours, judged on a scale of 0-3+, where 3+ represents maximum erythema and inflammation.
# [4] = tested on: suppressor cells (CD4 or CD8 T cell determinants); experiment: Phenotype of the suppressor cells, spleen cells treated in vitro with mab and complement before transfer; assay type: in vivo, mice of the strain AB (H-2^k)
# Experimental: The spleens from mice treated with lanthanum and control animals were removed and homogenized by gently pressing the tissue through a steel mesh. […] Thereafter the cells were washed 2 times and incubated for 20 minutes at 4° C. with a rat anti-mouse Ig mab (ATCC, Rockville, USA). The cells were washed 2 times and incubated for 30 minutes at 37° C. with normal rabbit serum, diluted 1:5 as a source of complement. The serum used was not toxic to the cells. Thereafter the cells were washed 2 times and 10^8 viable cells were injected intravenously into native syngeneic mice.
# The non-parametric Mann-Whitney test was used.
# To investigate the phenotype of this suppressor cell, spleen cells were harvested from mice which were previously sensitized with DNFB on LaCl3 pretreated skin. […]
# [5] = tested on: delayed hypersensitivity to ovalbumin; experiment: Antigenic specificity of the suppressor cells (ovalbumin response of recipients); assay type: in vivo, mice of the strain AB (H-2^k)
# Experimental: (§1) Inbred mice of the strain AB (H-2^k) reared in the breeding colony of the Humboldt University Berlin were used. The mice were fed with water and standard pellets ad libitum. During all procedures (sensitization, challenge, measurement) the animals were anesthetized by an intraperitoneal injection of hexobarbital sodium salt. The number of animals per experimental group (n) is presented.
# (§2) 10 g LaCl3 ×7H2 O (Laborchemie Apolda, G.D.R.) was dissolved in 10 ml water and incorporated into unguentum alcoholum lanae aquosum. The previously shaved sensitization site on the abdominal skin of the mice was treated at the days numbered -1, 0, and +1 with this ointment. At the days 0 and +1, when contact sensitization with DNFB was performed, the ointment was applied on hour after sensitization, so that the penetration of the DNFB was not influenced by the ointment.
# The spleens from mice treated with lanthanum and control animals were removed and homogenized by gently pressing the tissue through a steel mesh. […]
# Other groups of mice were sensitized by injection 50 microliters of ovalbumin (Serva, Heidelberg, F.R.G.) emulsified in 20 microliters of complete Freund's adjuvant (Difco laboratories, Detroit, U.S.A.) subcutaneously into the base of the tail. […] One day later foodpad swelling was measured. […]
# DNFB contact sensitivity = experiment: Transfer of hyporesponsiveness to DNFB by spleen cells of mice sensitized on LaCl3 treated skin; assay type: in vivo, mice of the strain AB (H-2^k)
# Excerpt: as §1
# The mice were anesthesized in an area of 2.0×2.0 cm on their abdomen, abdominal skin was shaved with a blade, and a 20 microliters of a 0.5% solution of 2,4-dinitro-1-fluorobenzene (DNFB) (Serva, Heidelberg, F.R.G.) in acetone were applied to this site. This procedure was repeated one day later.
# The challenge reaction was induced 5 days after the first sensitization by an application of 0.2% DNFB in acetone on the dorsal surfaces of both ears. The ear thickness was measured before and 24 hours after challenge using an engineers micrometer (Peacock, Japan).
# as §2
# The spleens from mice treated with lanthanum and control animals were removed and homogenized by gently pressing the tissue through a steel mesh. The cell were suspended in RPMI 1640 medium (SIFIN, Berlin, G.D.R.) and were washed three times by centrifugation at 300 g for 10 minutes and resuspended. The treatment with monoclonal antibodies (mab) was performed by incubating the cells for 20 minutes with the L3T4 mab (clone GK 1.5, ATCC, Rockville, USA) or the anti-Lyt 2 mab (clone 53-6, ATCC, Rockville, USA) in a final dilution of 1:50. Thereafter the cells were washed 2 times and incubated for 20 minutes at 4° C. with a rat anti-mouse Ig mab (ATCC, Rockville, USA). […]
# [6] = tested on: contact sensitization against DNCB; experiment: Effect of topically administered La^3+ on sensitization against DNCB (ear swelling); assay type: in vivo, BALB/c mice
# Experimental: Mice were treated with 50 microliters of 10% La^3+ chloride mixture (500 mg La^3+ chloride dissolved in 5 ml of 95% ethanol:glycerin [4:1 ratio]) applied for five consecutive days to the shaved back surface. Control animals were treated with the ethanol:glycerin vehicle only. On days 6 and 7, 25 microliters of 1.0% DNCB solution was applied to the shaved dorsal back surface. In mice pretreated with topical La^3+, DNCB was applied only to the shaved dorsal skin that had previously been treated with La^3+.
# [7] = assay type: in vivo, human (patients with atopic dermatitis)
# Experimental: To date, eight patterns with endogenous eczema (atopic dermatitis) have been treated with topical lanthanides. In three individuals, atopic dermatitis affected the majority of the body surface. These three patients were treated with a single total body application of lanthanum chloride (5% in hydrophilic ointment base). Blood levels of lanthanum were measured by atomic absorption spectroscopy, over a period of 1/2 to 24 hours after the single application.
# formaldehyde allergy = experiment: Prevention of inflammatory reaction by topical La^3+, patch test with formaldehyde; assay type: in vivo, human (patient); conditions: 2% in hydrophilic ointment base, read at 72 hours
# Experimental: In this example, a patient with known allergy against for formaldehyde was challenged with formaldehyde in the presence of lanthanum chloride. Lanthanum chloride was used at a 2% concentration (2 g/100 ml) in hydrophilic ointment base, USP, and the lanthanum was incorporated in the ointment at the time of exposure. The results of the patch test were read at 72 hours, and a photograph was taken. […] There was a very slight decrease of inflammation due to the presence of the ointment base itself. This slight decrease as a result of the use the emollient only is a well known phenomenon. […] The effect of the lanthanum is clearly much greater than that of the ointment base alone.
# [8] = tested on: atopic dermatitis affecting the hands; experiment: Treatment of atopic dermatitis affecting the hands with lanthanum chloride ointment; assay type: in vivo, human (patients); conditions: 5% ointment twice daily, 1-3 months; five patients
# Experimental: Five patients with atopic dermatitis affecting the hands were treated with topical lanthanides. In this protocol individuals were dispensed a 5% lanthanum chloride ointment and were instructed to use a thin film on the hands twice daily immediately before work and immediately upon returning home from work. These individuals did so for a period of 1-3 months.
# [9] = following intraperitoneal administration; cited from earlier work
# [10] = tested on: epidermal Langerhans cells (ELC); experiment: Density and morphology of epidermal Langerhans cells, ATPase and Ia staining; assay type: in vivo, BALB/c mice
# Excerpt: Mice were sacrificed by cervical dislocation and their ears were amputated at the base. The skin was separated from underlying cartilage by dissection and pressed dermal side up onto an adhesive surface of a double stick tape (Dermotome Tape, 3M, St. Paul, Minn.), that had previously been fixed onto a glass slide. […] (25,26), then the epidermis was separated as an intact sheet from the underlying dermis.
# Epidermal sheets were stained for ATPase activity according to MacKenzie and Squier (27). Briefly, epidermal sheets were fixed in Tris-maleic acid buffered 4% paraformaldehyde, pH 7.3, for 20 minutes at 4° C. After three washes with a 0.9% NaCl solution, the epidermal sheets were incubated at pH 7.3 in a solution containing 10 mg ATP, 5 ml of 10% MgSO4, 3 ml of 2% […], and 42 ml Tris-maleic acid buffer for one hour at 37° C., washed with 0.9% NaCl solution, and reacted with 0.1% ammonium sulfide for five minutes at room temperature. The stained specimens were mounted in a 9:1 mixture of PBS/glycerol.
# Ia-positive cells were stained as follows: EDTA separated epidermal specimens, washed in PBS for 30 minutes, were fixed in cold acetone (-20° C.) for 20 minutes. After washing with PBS, the epidermal sheets were incubated with a 1:100 dilution of anti-mouse I-A^d monoclonal antibody (Becton Dickinson, Mountain View, Calif.) at 4° C. overnight (28). Subsequently, specimens were washed in PBS for two hours and exposed to fluorescein conjugated F(ab')2 fragment goat anti-mouse IgG (Organon Teknika Corp., West Chester, Pa.) at a 1:50 dilution for two hours at 37° C. The epidermal sheets were mounted in Perma Fluor (Lipshaw, Detroit, Mich.).
# Slides were coded and read in a "blinded" manner. The density of ELC within each epidermal sheet was determined by using a dual epifluorescent and light microscope (Olympus BH-2, Japan) with a calibrated net micrometer grid. ATPase-positive ELC and Ia-positive ELC present in a 0.25 mm^2 area were counted in two random fields per sheet (total: 16 fields per experimental group). ELC density was recorded as the number of cells per mm^2 (mean ±S.E.). Statistical significance of the differences between treatment and control groups was calculated using a two-talled Wilcoxon Rank Sum Test. Differences between groups were considered significant at p=0.05.
# [11] = 0.25 mg per animal intraperitoneally for five days, vs control animals
molecule,measurement,setting,value
"COc1ccc([C@@H]2Sc3ccccc3N(CCN(C)C)C(=O)[C@@H]2OC(C)=O)cc1 [diltiazem, 1,5-Benzothiazepin-4(5H)one, 3-acetoy lox-5-(2-(dimethylamine)ethyl)-2,3-dihydro-2(4-methoxyphenyl)-, monohydrochloride, (+)-cis]",reduction in the contact hypersensitivity response,"[1]; 30 mg/kg intraperitoneally two times a day for three days, p=0.001",67%
same,decrease in ear thickness 24 h post-challenge,"[1]; FIG. 3, vs. solvent only, p<0.001",67%
same,difference in ear swelling between pretreated and control animals,"[1]; statement follows negative controls (challenged, not sensitized) 0.03±0.01 mm",not statistically significant
same,ear swelling,[1]; vehicle control 0.15±0.02 mm,0.05±0.01 mm
same,LD50,[2],60 mg per kg
"[Cl][La]([Cl])[Cl] [lanthanum chloride, Lanthanum chloride]",suppression of inflammation in all individuals,[3]; 5% lanthanum chloride at the time of exposure to known allergen,significant suppression of inflammation
same,suppression of inflammation upon challenge,"[3]; seven patients, known sensitizing agents",dose dependent effect in suppression of inflammation
same,suppressor T cell population induced,[4]; DNFB-sensitized mice,a splenic CD4-CD8+ suppressor T cell population is induced
same,% Suppression,"[4]; spleen cells of LaCl3-treated, DNFB-sensitized donors, in vitro treatment as labelled (LaCl3 line = no treatment of cells), n 5",100%
same,Ear thickness,"[4]; ± SD, spleen cells of LaCl3-treated, DNFB-sensitized donors, in vitro treatment as labelled (LaCl3 line = no treatment of cells), no cell transfer 50 ± 4.2, n 5",28 ± 2.1 10^-2 mm
same,footpad swelling response of the recipients to ovalbumin,[5]; transferred cells from mice sensitized with DNFB on LaCl3-treated skin,not affected
same,Ear thickness (footpad swelling per footnote),"[5]; ± SD, DNFB sensitization on LaCl3 treated skin, recipients immunized with ovalbumin, n 8, NS, no cell transfer .68 ± .12",.68 ± .09 10^-2 mm
same,% Suppression,"DNFB contact sensitivity; recipients of cells from donors DNFB-sensitized on LaCl3 treated skin, n 7",88%
same,transfer of hyporesponsiveness to DNFB by spleen cells,DNFB contact sensitivity; topical LaCl3 treatment of donors,transferred the hyporesponsiveness to DNFB to native syngeneic recipients
same,Ear thickness,"DNFB contact sensitivity; ± SD, recipients of cells from donors DNFB-sensitized on LaCl3 treated skin, n 7, p 0.01, no cell transfer 46 ± 4.8",29 ± 2.4 10^-2 mm
same,ear swelling,"[6]; 24 h post-challenge, control 0.12±0.02 mm, p=0.028",0.05±0.02 mm
same,decrease in ear thickness 24 h post-challenge,"[6]; FIG. 2, topical, vs. non-La-treated animals, p<0.01, challenge 25 μl of 0.25% DNCB",58%
same,difference in ear swelling between pretreated and control animals,[6]; statement follows negative control (challenged without prior sensitization) 0.03±0.01 mm,not statistically significant
same,reduction in the contact hypersensitivity response,"[6]; topical, 50 microliters of 10% La^3+ chloride, five days",58%
same,penetration of the stratum corneum of the epidermis,[7],does penetrate the stratum corneum of the epidermis
same,time of peak blood level,"[7]; human, in vivo, topical or ocular",approximately 4 hours
same,Blood Concentration of La^+ 3,"[7]; human, in vivo, topical or ocular, 0.5 h",4 ± 2.8 ng/mL
same,Blood Concentration of La^+ 3,"[7]; human, in vivo, topical or ocular, 1 h",12.3 ± 2.3 ng/mL
same,Blood Concentration of La^+ 3,"[7]; human, in vivo, topical or ocular, 2 h",12.16 ± 3 ng/mL
same,Blood Concentration of La^+ 3,"[7]; human, in vivo, topical or ocular, 4 h",30.9 ± 2.2 ng/mL
same,Blood Concentration of La^+ 3,"[7]; human, in vivo, topical or ocular, 12 h",14 ± 1.6 ng/mL
same,Blood Concentration of La^+ 3,"[7]; human, in vivo, topical or ocular, 24 h",11 ± 3.6 ng/mL
same,blood level relative to levels known to produce toxicity in animals and humans,[7]; in vivo,well below those levels known to produce toxicity in animals and humans
same,inflammation in patch test,formaldehyde allergy,almost totally abolished
same,"fissuring, oozing, and puritis",[8],decrease
same,hand dermatitis,[8],significant improvement
lanthanum citrate [La^3+ citrate],accumulation in the skin,[9],accumulated in the skin
same,decrease in density of ATPase positive cells,[10]; [11],13%
same,decrease in number of Ia-positive cells,[10]; [11],14%
same,"Density of Langerhans cells in ear skin, ATPase","[10]; ATPase staining, ± S.E., 0.9% NaCl 807 ± 55",702 ± 49 cells/mm^2
same,"Density of Langerhans cells in ear skin, Ia","[10]; Ia staining, ± S.E., 0.9% NaCl 830 ± 46",715 ± 59 cells/mm^2
same,"ELC ""rounded up"" and without dendrites","[10]; in focal areas, ATPase and Ia staining",approximately 20%
same,"staining of ""round"" cells by the ATPase technique",[10]; subjectively measured by darkening of the cell body,more darkly stained
